Test results taken from PubChem BioAssay AID216 (DTP/NCI, 2004).
Where “and” joins values, the source holds several entries; their conditions need not be identical. Equal values may be shown once. Inconclusive results and toxic doses are left out.

Test system: BDF1 mice, P288 leukemia ip, survival T/C
Test: NCI In Vivo Anticancer Drug Screen. Data for tumor model P288 Lymphocytic Leukemia (intraperitoneal) in B6D2F1 (BDF1) mice
Details: higher = longer survival
Description: The antitumor activity of compounds was measured in mice bearing transplantable tumors. Survival or tumor size were measured and the results are expressed as the measurement made in the treated group (T) divided by the measurement made in the vehicle treated control group (C). The tumor model used in this assay is P288 Lymphocytic Leukemia (intraperitoneal) in B6D2F1 (BDF1) mice

[1] = endpoint: survival time, mean or median, dose: 2.0 mg/kg/injection, schedule: Q01DX010 (ip), vehicle: saline
[2] = endpoint: survival time, mean or median, dose: 4.0 mg/kg/injection, schedule: Q01DX010 (ip), vehicle: saline
[3] = endpoint: survival time, mean or median, dose: 16.0 mg/kg/injection, schedule: Q01DX010 (ip), vehicle: saline

Q: What does the source list for `NC(Cc1ccc(N(CCCl)CCCl)cc1)C(=O)O` (centres undefined)?
A: T/C (endpoint: survival time, mean or median, dose: 0.31 mg/kg/injection, schedule: Q01DX Z (ip), vehicle: carboxymethylcellulose (CMC)): 90 % of control; T/C (endpoint: survival time, mean or median, dose: 0.63 mg/kg/injection, schedule: Q01DX Z (ip), vehicle: carboxymethylcellulose (CMC)): 111 % of control; T/C (endpoint: survival time, mean or median, dose: 1.25 mg/kg/injection, schedule: Q01DX010 (ip), vehicle: saline): 112 % of control; T/C (endpoint: survival time, mean or median, dose: 1.25 mg/kg/injection, schedule: Q01DX Z (ip), vehicle: carboxymethylcellulose (CMC)): 110 % of control; T/C [1]: 172 % of control; T/C (endpoint: survival time, mean or median, dose: 2.5 mg/kg/injection, schedule: Q01DX Z (ip), vehicle: carboxymethylcellulose (CMC)): 105 % of control; T/C [2]: 188 % of control; T/C (endpoint: survival time, mean or median, dose: 5.0 mg/kg/injection, schedule: Q01DX010 (ip), vehicle: saline): 150 % of control; T/C (endpoint: survival time, mean or median, dose: 5.0 mg/kg/injection, schedule: Q01DX Z (ip), vehicle: carboxymethylcellulose (CMC)): 97 % of control; T/C (endpoint: survival time, mean or median, dose: 10.0 mg/kg/injection, schedule: Q01DX010 (ip), vehicle: saline): 187 % of control; T/C (endpoint: survival time, mean or median, dose: 10.0 mg/kg/injection, schedule: Q01DX Z (ip), vehicle: carboxymethylcellulose (CMC)): 97 % of control; T/C [3]: 88 % of control

Q: `CCCNc1ncnc2[nH]ncc12` was tested. Which T/C (endpoint: survival time, mean or median, dose: 0.31 mg/kg/injection, schedule: Q01DX Z (ip), vehicle: water) did it give?
A: Its T/C is 94 % of control.

Q: And the T/C (endpoint: survival time, mean or median, dose: 0.63 mg/kg/injection, schedule: Q01DX Z (ip), vehicle: water)?
A: The T/C was 90 % of control.

Q: What about the T/C (endpoint: survival time, mean or median, dose: 2.5 mg/kg/injection, schedule: Q01DX Z (ip), vehicle: water) of the same compound?
A: Its T/C is 108 % of control and 114 % of control.

Q: And the T/C (endpoint: survival time, mean or median, dose: 5.0 mg/kg/injection, schedule: Q01DX Z (ip), vehicle: water)?
A: The T/C was 112 % of control.

Q: And the T/C (endpoint: survival time, mean or median, dose: 10.0 mg/kg/injection, schedule: Q01DX Z (ip), vehicle: water)?
A: The T/C was 106 % of control and 91 % of control.

Q: And the T/C (endpoint: survival time, mean or median, dose: 20.0 mg/kg/injection, schedule: Q01DX Z (ip), vehicle: water)?
A: Its T/C is 108 % of control.

Q: And the T/C (endpoint: survival time, mean or median, dose: 40.0 mg/kg/injection, schedule: Q01DX Z (ip), vehicle: water)?
A: Its T/C is 103 % of control.

Q: With `O=C(Nc1ccc(C2=NCCN2)cc1)c1ccc(C(=O)Nc2ccc(C3=NCCN3)cc2)cc1` as the compound, how does the T/C (endpoint: survival time, mean or median, dose: 3.12 mg/kg/injection, schedule: Q01DX Z (ip), vehicle: carboxymethylcellulose (CMC)) read?
A: Its T/C is 107 % of control.

Q: And the T/C (endpoint: survival time, mean or median, dose: 6.25 mg/kg/injection, schedule: Q01DX Z (ip), vehicle: carboxymethylcellulose (CMC))?
A: Its T/C is 94 % of control.

Q: And the T/C (endpoint: survival time, mean or median, dose: 8.0 mg/kg/injection, schedule: Q01DX010 (ip), vehicle: other)?
A: The T/C was 158 % of control and 188 % of control.

Q: What about the T/C (endpoint: survival time, mean or median, dose: 12.5 mg/kg/injection, schedule: Q01DX Z (ip), vehicle: carboxymethylcellulose (CMC)) of the same compound?
A: Its T/C is 102 % of control.

Q: And the T/C (endpoint: survival time, mean or median, dose: 16.0 mg/kg/injection, schedule: Q01DX010 (ip), vehicle: other)?
A: Its T/C is 195 % of control.

Q: And the T/C (endpoint: survival time, mean or median, dose: 25.0 mg/kg/injection, schedule: Q01DX Z (ip), vehicle: carboxymethylcellulose (CMC))?
A: Its T/C is 102 % of control.

Q: And the T/C (endpoint: survival time, mean or median, dose: 32.0 mg/kg/injection, schedule: Q01DX010 (ip), vehicle: other)?
A: Its T/C is 154 % of control.

Q: What about the T/C (endpoint: survival time, mean or median, dose: 50.0 mg/kg/injection, schedule: Q01DX Z (ip), vehicle: carboxymethylcellulose (CMC)) of the same compound?
A: The T/C was 102 % of control.

Q: What about the T/C (endpoint: survival time, mean or median, dose: 100.0 mg/kg/injection, schedule: Q01DX Z (ip), vehicle: carboxymethylcellulose (CMC)) of the same compound?
A: The T/C was 204 % of control.

Q: And the T/C (endpoint: survival time, mean or median, dose: 200.0 mg/kg/injection, schedule: Q01DX Z (ip), vehicle: carboxymethylcellulose (CMC))?
A: The T/C was 186 % of control.

Q: How did the T/C (endpoint: survival time, mean or median, dose: 15.6 mg/kg/injection, schedule: Q01DX Z (ip), vehicle: carboxymethylcellulose (CMC)) turn out when `CCn1cnc2c(=S)nc[nH]c21` was run?
A: The T/C was 92 % of control.

Q: What about the T/C (endpoint: survival time, mean or median, dose: 31.25 mg/kg/injection, schedule: Q01DX Z (ip), vehicle: carboxymethylcellulose (CMC)) of the same compound?
A: The T/C was 92 % of control.

Q: What about the T/C (endpoint: survival time, mean or median, dose: 62.5 mg/kg/injection, schedule: Q01DX010 (ip), vehicle: saline) of the same compound?
A: The T/C was 90 % of control.

Q: What about the T/C (endpoint: survival time, mean or median, dose: 62.5 mg/kg/injection, schedule: Q01DX Z (ip), vehicle: carboxymethylcellulose (CMC)) of the same compound?
A: The T/C was 93 % of control.

Q: What about the T/C (endpoint: survival time, mean or median, dose: 125.0 mg/kg/injection, schedule: Q01DX010 (ip), vehicle: saline) of the same compound?
A: The T/C was 90 % of control.

Q: Which results are given for `CN(Cc1cnc2nc(N)nc(N)c2n1)c1ccc(C(=O)N[C@@H](CCC(=O)O)C(=O)O)cc1`?
A: T/C (endpoint: median survival time, dose: 0.38 mg/kg/injection, schedule: Q01DX009 (ip), vehicle: sodium bicarbonate): 183 % of control; T/C (endpoint: median survival time, dose: 0.75 mg/kg/injection, schedule: Q01DX009 (ip), vehicle: sodium bicarbonate): 191 % of control; T/C (endpoint: median survival time, dose: 1.5 mg/kg/injection, schedule: Q01DX009 (ip), vehicle: sodium bicarbonate): 220 % of control; T/C (endpoint: median survival time, dose: 3.0 mg/kg/injection, schedule: Q01DX009 (ip), vehicle: sodium bicarbonate): 91 % of control; T/C (endpoint: median survival time, dose: 6.0 mg/kg/injection, schedule: Q01DX009 (ip), vehicle: sodium bicarbonate): 154 % of control; T/C (endpoint: survival time, mean or median, dose: 0.31 mg/kg/injection, schedule: Q01DX Z (ip), vehicle: other): 123 % of control; T/C (endpoint: survival time, mean or median, dose: 0.38 mg/kg/injection, schedule: Q01DX010 (ip), vehicle: other): 162 % of control and 167 % of control and 193 % of control; T/C (endpoint: survival time, mean or median, dose: 0.62 mg/kg/injection, schedule: Q01DX Z (ip), vehicle: other): 189 % of control and 222 % of control; T/C (endpoint: survival time, mean or median, dose: 0.75 mg/kg/injection, schedule: Q01DX010 (ip), vehicle: other): 176 % of control and 228 % of control and 235 % of control; T/C (endpoint: survival time, mean or median, dose: 1.25 mg/kg/injection, schedule: Q01DX Z (ip), vehicle: other): 219 % of control and 256 % of control and 261 % of control; T/C (endpoint: survival time, mean or median, dose: 1.5 mg/kg/injection, schedule: Q01DX010 (ip), vehicle: other): 229 % of control and 230 % of control (2×); T/C (endpoint: survival time, mean or median, dose: 1.5 mg/kg/injection, schedule: Q01DX Z (ip), vehicle: other): 158 % of control; T/C (endpoint: survival time, mean or median, dose: 2.5 mg/kg/injection, schedule: Q01DX Z (ip), vehicle: other): 205 % of control and 244 % of control; T/C (endpoint: survival time, mean or median, dose: 3.0 mg/kg/injection, schedule: Q01DX010 (ip), vehicle: other): 186 % of control; T/C (endpoint: survival time, mean or median, dose: 5.0 mg/kg/injection, schedule: Q01DX Z (ip), vehicle: other): 116 % of control

Q: What does the source list for `C=CC(CN1CC1)OC(C)=O` (centres undefined)?
A: T/C (endpoint: survival time, mean or median, dose: 0.47 mg/kg/injection, schedule: Q01DX Z (ip), vehicle: carboxymethylcellulose (CMC)): 109 % of control; T/C (endpoint: survival time, mean or median, dose: 0.95 mg/kg/injection, schedule: Q01DX Z (ip), vehicle: carboxymethylcellulose (CMC)): 101 % of control; T/C (endpoint: survival time, mean or median, dose: 1.9 mg/kg/injection, schedule: Q01DX Z (ip), vehicle: carboxymethylcellulose (CMC)): 115 % of control and 90 % of control; T/C [1]: 94 % of control; T/C (endpoint: survival time, mean or median, dose: 3.8 mg/kg/injection, schedule: Q01DX Z (ip), vehicle: carboxymethylcellulose (CMC)): 108 % of control; T/C [2]: 94 % of control; T/C (endpoint: survival time, mean or median, dose: 8.0 mg/kg/injection, schedule: Q01DX010 (ip), vehicle: saline): 115 % of control; T/C [3]: 115 % of control

Q: For `S=c1nc[nH]c2nc[nH]c12`, which T/C (endpoint: survival time, mean or median, dose: 5.0 mg/kg/injection, schedule: Q01DX010 (ip), vehicle: alkali diluted with saline) is on record?
A: The T/C was 92 % of control.

Q: What about the T/C (endpoint: survival time, mean or median, dose: 10.0 mg/kg/injection, schedule: Q01DX010 (ip), vehicle: alkali diluted with saline) of the same compound?
A: Its T/C is 94 % of control.

Q: What about the T/C (endpoint: survival time, mean or median, dose: 12.5 mg/kg/injection, schedule: Q01DX Z (ip), vehicle: other) of the same compound?
A: Its T/C is 97 % of control.

Q: What about the T/C (endpoint: survival time, mean or median, dose: 20.0 mg/kg/injection, schedule: Q01DX010 (ip), vehicle: alkali diluted with saline) of the same compound?
A: The T/C was 86 % of control and 100 % of control.

Q: What about the T/C (endpoint: survival time, mean or median, dose: 25.0 mg/kg/injection, schedule: Q01DX Z (ip), vehicle: other) of the same compound?
A: Its T/C is 93 % of control and 100 % of control.

Q: What about the T/C (endpoint: survival time, mean or median, dose: 40.0 mg/kg/injection, schedule: Q01DX010 (ip), vehicle: alkali diluted with saline) of the same compound?
A: The T/C was 110 % of control and 86 % of control.

Q: What about the T/C (endpoint: survival time, mean or median, dose: 50.0 mg/kg/injection, schedule: Q01DX Z (ip), vehicle: other) of the same compound?
A: The T/C was 102 % of control and 94 % of control.

Q: What about the T/C (endpoint: survival time, mean or median, dose: 80.0 mg/kg/injection, schedule: Q01DX010 (ip), vehicle: alkali diluted with saline) of the same compound?
A: Its T/C is 117 % of control and 86 % of control.

Q: And the T/C (endpoint: survival time, mean or median, dose: 100.0 mg/kg/injection, schedule: Q01DX Z (ip), vehicle: other)?
A: The T/C was 105 % of control and 118 % of control.

Q: What about the T/C (endpoint: survival time, mean or median, dose: 200.0 mg/kg/injection, schedule: Q01DX Z (ip), vehicle: other) of the same compound?
A: Its T/C is 106 % of control and 100 % of control.

Q: And the T/C (endpoint: survival time, mean or median, dose: 400.0 mg/kg/injection, schedule: Q01DX Z (ip), vehicle: other)?
A: The T/C was 89 % of control.

Q: For `COc1cc2c(c(OC)c1OC)-c1ccc(OC)c(=O)cc1[C@@H](NC(C)=O)CC2`, which T/C (endpoint: survival time, mean or median, dose: 0.12 mg/kg/injection, schedule: Q01DX Z (ip), vehicle: saline) is on record?
A: Its T/C is 109 % of control.
